Measured values taken from the supplement of paper PMC10307832.

Columns and labels:
Assay in all cases: relative viability (nuclei count vs DMSO), 5 days (fraction); higher = more cells survive
BEN = tested on: BEN
Outline: (§1)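 For relative viability, nuclei counts in treated wells were divided by those in vehicle wells. Lung cancer cell lines had been pin-tool dosed in 1536-well plates the day after seeding and cultured for 5 days, then fixed and stained in one step (final 0.05% Triton X-100, 1% formaldehyde, 1 ug/ml Hoechst) and imaged at 4×. Doses were one drug alone or a fixed anchor-drug dose plus five library-drug doses (not always all listed) in √10 steps, and values are duplicate-plate medians.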

CAL-12T = tested on: CAL-12T
Outline: as §1

COR-L23 = tested on: COR-L23
Outline: as §1

HCC-44 = tested on: HCC-44
Outline: as §1

LU99A = tested on: LU99A
Outline: as §1

LXF-289 = tested on: LXF-289
Outline: as §1

NCI-H1355 = tested on: NCI-H1355
Outline: as §1

NCI-H1437 = tested on: NCI-H1437
Outline: as §1

NCI-H1563 = tested on: NCI-H1563
Outline: as §1

NCI-H1650 = tested on: NCI-H1650
Outline: as §1

NCI-H1651 = tested on: NCI-H1651
Outline: as §1

NCI-H1666 = tested on: NCI-H1666
Outline: as §1

NCI-H1755 = tested on: NCI-H1755
Outline: as §1

NCI-H1792 = tested on: NCI-H1792
Outline: as §1

NCI-H1993 = tested on: NCI-H1993
Outline: as §1

NCI-H2085 = tested on: NCI-H2085
Outline: as §1

NCI-H2087 = tested on: NCI-H2087
Outline: as §1

NCI-H2170 = tested on: NCI-H2170
Outline: as §1

NCI-H460 = tested on: NCI-H460
Outline: as §1

NCI-H520 = tested on: NCI-H520
Outline: as §1

PC-14 = tested on: PC-14
Outline: as §1

SK-MES-1 = tested on: SK-MES-1
Outline: as §1

Cc1csc(=NC2CCCCC2)n1/N=C/c1ccc(O)c(O)c1O [MIM1] + N=C(N)NC(=N)NCCc1ccccc1 [Phenformin] (partner 250 µM)
relative viability (BEN; first compound 0.2 µM): 0.261 | relative viability (BEN; first compound 0.6325 µM): 0.236 | relative viability (BEN; first compound 2 µM): 0.236 | relative viability (BEN; first compound 6.325 µM): 0.28 | relative viability (BEN; first compound 20 µM): 0.213 | relative viability (CAL-12T; first compound 0.2 µM): 0.614 | relative viability (CAL-12T; first compound 0.6325 µM): 0.467 | relative viability (CAL-12T; first compound 2 µM): 0.586 | relative viability (CAL-12T; first compound 6.325 µM): 0.372 | relative viability (CAL-12T; first compound 20 µM): 0.119 | relative viability (COR-L23; first compound 0.2 µM): 0.434 | relative viability (COR-L23; first compound 0.6325 µM): 0.437 | relative viability (COR-L23; first compound 2 µM): 0.37 | relative viability (COR-L23; first compound 6.325 µM): 0.373 | relative viability (COR-L23; first compound 20 µM): 0.187 | relative viability (HCC-44; first compound 0.2 µM): 0.239 | relative viability (HCC-44; first compound 0.6325 µM): 0.138 | relative viability (HCC-44; first compound 2 µM): 0.111 | relative viability (HCC-44; first compound 6.325 µM): 0.154 | relative viability (HCC-44; first compound 20 µM): 0.13 | relative viability (LU99A; first compound 0.2 µM): 0.976 | relative viability (LU99A; first compound 0.6325 µM): 0.753 | relative viability (LU99A; first compound 2 µM): 0.819 | relative viability (LU99A; first compound 6.325 µM): 0.702 | relative viability (LU99A; first compound 20 µM): 0.325 | relative viability (LXF-289; first compound 0.2 µM): 0.517 | relative viability (LXF-289; first compound 0.6325 µM): 0.476 | relative viability (LXF-289; first compound 2 µM): 0.532 | relative viability (LXF-289; first compound 6.325 µM): 0.452 | relative viability (LXF-289; first compound 20 µM): 0.264 | relative viability (NCI-H1355; first compound 0.2 µM): 0.46 | relative viability (NCI-H1355; first compound 0.6325 µM): 0.351 | relative viability (NCI-H1355; first compound 2 µM): 0.443 | relative viability (NCI-H1355; first compound 6.325 µM): 0.399 | relative viability (NCI-H1355; first compound 20 µM): 0.274 | relative viability (NCI-H1437; first compound 0.2 µM): 0.256 | relative viability (NCI-H1437; first compound 0.6325 µM): 0.246 | relative viability (NCI-H1437; first compound 2 µM): 0.244 | relative viability (NCI-H1437; first compound 6.325 µM): 0.205 | relative viability (NCI-H1437; first compound 20 µM): 0.217 | relative viability (NCI-H1563; first compound 0.2 µM): 0.672 | relative viability (NCI-H1563; first compound 0.6325 µM): 0.734 | relative viability (NCI-H1563; first compound 2 µM): 0.706 | relative viability (NCI-H1563; first compound 6.325 µM): 0.631 | relative viability (NCI-H1563; first compound 20 µM): 0.478 | relative viability (NCI-H1650; first compound 0.2 µM): 0.461 | relative viability (NCI-H1650; first compound 0.6325 µM): 0.406 | relative viability (NCI-H1650; first compound 2 µM): 0.412 | relative viability (NCI-H1650; first compound 6.325 µM): 0.155 | relative viability (NCI-H1650; first compound 20 µM): 0.164 | relative viability (NCI-H1651; first compound 0.2 µM): 0.351 | relative viability (NCI-H1651; first compound 0.6325 µM): 0.275 | relative viability (NCI-H1651; first compound 2 µM): 0.39 | relative viability (NCI-H1651; first compound 6.325 µM): 0.291 | relative viability (NCI-H1651; first compound 20 µM): 0.165 | relative viability (NCI-H1666; first compound 0.2 µM): 0.578 | relative viability (NCI-H1666; first compound 0.6325 µM): 0.607 | relative viability (NCI-H1666; first compound 2 µM): 0.517 | relative viability (NCI-H1666; first compound 6.325 µM): 0.456 | relative viability (NCI-H1666; first compound 20 µM): 0.26 | relative viability (NCI-H1755; first compound 0.2 µM): 0.596 | relative viability (NCI-H1755; first compound 0.6325 µM): 0.597 | relative viability (NCI-H1755; first compound 2 µM): 0.621 | relative viability (NCI-H1755; first compound 6.325 µM): 0.506 | relative viability (NCI-H1755; first compound 20 µM): 0.226 | relative viability (NCI-H1792; first compound 0.2 µM): 0.446 | relative viability (NCI-H1792; first compound 0.6325 µM): 0.401 | relative viability (NCI-H1792; first compound 2 µM): 0.322 | relative viability (NCI-H1792; first compound 6.325 µM): 0.353 | relative viability (NCI-H1792; first compound 20 µM): 0.43 | relative viability (NCI-H1993; first compound 0.2 µM): 0.481 | relative viability (NCI-H1993; first compound 0.6325 µM): 0.545 | relative viability (NCI-H1993; first compound 2 µM): 0.474 | relative viability (NCI-H1993; first compound 6.325 µM): 0.443 | relative viability (NCI-H1993; first compound 20 µM): 0.463 | relative viability (NCI-H2085; first compound 0.2 µM): 0.739 | relative viability (NCI-H2085; first compound 0.6325 µM): 0.713 | relative viability (NCI-H2085; first compound 2 µM): 0.788 | relative viability (NCI-H2085; first compound 6.325 µM): 0.589 | relative viability (NCI-H2085; first compound 20 µM): 0.468 | relative viability (NCI-H2087; first compound 0.2 µM): 0.457 | relative viability (NCI-H2087; first compound 0.6325 µM): 0.443 | relative viability (NCI-H2087; first compound 2 µM): 0.478 | relative viability (NCI-H2087; first compound 6.325 µM): 0.289 | relative viability (NCI-H2087; first compound 20 µM): 0.225 | relative viability (NCI-H2170; first compound 0.2 µM): 0.407 | relative viability (NCI-H2170; first compound 0.6325 µM): 0.406 | relative viability (NCI-H2170; first compound 2 µM): 0.414 | relative viability (NCI-H2170; first compound 6.325 µM): 0.264 | relative viability (NCI-H2170; first compound 20 µM): 0.172 | relative viability (NCI-H460; first compound 0.2 µM): 0.497 | relative viability (NCI-H460; first compound 0.6325 µM): 0.531 | relative viability (NCI-H460; first compound 2 µM): 0.387 | relative viability (NCI-H460; first compound 6.325 µM): 0.172 | relative viability (NCI-H460; first compound 20 µM): 0.0325 | relative viability (NCI-H520; first compound 0.2 µM): 0.793 | relative viability (NCI-H520; first compound 0.6325 µM): 0.512 | relative viability (NCI-H520; first compound 2 µM): 0.561 | relative viability (NCI-H520; first compound 6.325 µM): 0.447 | relative viability (NCI-H520; first compound 20 µM): 0.323 | relative viability (PC-14; first compound 0.2 µM): 0.662 | relative viability (PC-14; first compound 0.6325 µM): 0.575 | relative viability (PC-14; first compound 2 µM): 0.558 | relative viability (PC-14; first compound 6.325 µM): 0.328 | relative viability (PC-14; first compound 20 µM): 0.237 | relative viability (SK-MES-1; first compound 0.2 µM): 0.643 | relative viability (SK-MES-1; first compound 0.6325 µM): 0.665 | relative viability (SK-MES-1; first compound 2 µM): 0.617 | relative viability (SK-MES-1; first compound 6.325 µM): 0.484 | relative viability (SK-MES-1; first compound 20 µM): 0.41
